Measured values published in publication PMC10779433, “Bidirectional Allosteric Coupling between PIP2 Binding and the Pore of the Oncochannel TRPV6” (International Journal of Molecular Sciences, 2024).
Residues, ends and D or L forms follow the SMILES beside them. *: point of attachment. Palmitoyl = CCCCCCCCCCCCCCCC(=O)*

Columns and labels:
[1] = tested on: TRPV6 G488R; test: Whole-cell patch clamp, TRPV6 G488R; format: cell-based, human; conditions: HEK293 cells; for inhibition of current (in words): Figure 2D
Source text: N-terminally TagRFP-labeled human TRPV6 (725 aa) was kindly provided by R. Bhardwaj and M. Hediger (University of Bern, Bern, Switzerland). This variant is translated from the first ATG codon and thus deviates from the non-ATG-initiated protein which is expressed in vivo (accession number NM_018646.6) by lacking 40 amino acids of the very N-terminus. For N-terminal labeling with EYFP, TRPV6 was cloned into pEYFP-C1 (Clontech) via EcoRI and SacII restriction sites. Mutations (F468A, R470A, F472A, K484A/Q, G488R, R492A/Q, I575A, G579A, D580A/K, H582A, W583A/F, H587A, R589A, W593A, R632A/Q, R470A, W583F) were introduced using the QuickChange XL site-directed mutagenesis kit (Stratagene, San Diego, CA, USA) and Pfu DNA Polymerase (Promega, Madison, WI, USA). pTagRFP-hTRPV6 I575A was kindly provided by the lab of M. Hediger (University of Bern, Bern, Switzerland). Forward and reverse primers for site-directed mutagenesis were synthesized by Eurofins genomics GmbH (Wien, Vienna, Austria). Intactness of the constructs in terms of sequence was confirmed by sequencing (Microsynth Austria GmbH, Wien, Vienna, Austria; Eurofins genomics GmbH, Wien, Vienna, Austria). In the present experiments, Tag-RFP-labeled constructs were implemented for NFAT screens, patch clamp measurements, and Fura-2-based Ca^2+ imaging, while for R.Geco1.2 measurements, TRPV6 WT and mutants were used which carried an EYFP label at the N-terminus (pEYFP-C1 vector) to avoid spectral overlap. R.Geco1.2 was purchased from Addgene (No. 45494), and mCherry-CRY2-5ptase OCRL was established in the lab of P. De Camilli and was derived from Addgene (No. 66836), as was CIBN-CAAX (No. 79574). Plasmids encoding for mCerulean3-CRY2-5′ ptase OCRL, YFP-CIBN-CAAX, and the mCherry-tagged PH domain were provided by K. Groschner (Medical University of Graz, Graz, Austria). […] CFP-NFAT (NFATc1, equivalent to NFAT2) was kindly provided by R. Kehlenbach (Scripps Research Institute, La Jolla, CA, USA).
Cultivation of human embryonic kidney (HEK) 293 cells occurred in DMEM supplemented with 10% fetal calf serum, penicillin (100 U/mL), and streptomycin (100 µg/mL) at 37 °C under humidified atmosphere containing 5% CO2. Transient transfection was performed 20–24 h prior to experiments using the TransFectin lipid reagent (Bio-Rad, Hercules, CA, USA), in accordance with the instructions of the supplier. For Ca^2+ imaging using R.Geco1.2, 2 μg of the indicator-encoding plasmid were additionally transfected, while 1 μg plasmid DNA was routinely used per construct in all other cases. […]
(§1) Electrophysiological experiments were performed at 20 °C to 24 °C in whole-cell recording configurations of the patch clamp technique. […] The liquid junction potential was determined as 12 mV; the voltages were not adjusted. […]

[2] = tested on: TRPV6 R492Q; test: Whole-cell patch clamp, TRPV6 R492Q; format: cell-based, human; conditions: HEK293 cells, p < 0.05
Source text: N-terminally TagRFP-labeled human TRPV6 (725 aa) was kindly provided by R. Bhardwaj and M. Hediger (University of Bern, Bern, Switzerland). This variant is translated from the first ATG codon and thus deviates from the non-ATG-initiated protein which is expressed in vivo (accession number NM_018646.6) by lacking 40 amino acids of the very N-terminus. For N-terminal labeling with EYFP, TRPV6 was cloned into pEYFP-C1 (Clontech) via EcoRI and SacII restriction sites. Mutations (F468A, R470A, F472A, K484A/Q, G488R, R492A/Q, I575A, G579A, D580A/K, H582A, W583A/F, H587A, R589A, W593A, R632A/Q, R470A, W583F) were introduced using the QuickChange XL site-directed mutagenesis kit (Stratagene, San Diego, CA, USA) and Pfu DNA Polymerase (Promega, Madison, WI, USA). pTagRFP-hTRPV6 I575A was kindly provided by the lab of M. Hediger (University of Bern, Bern, Switzerland). Forward and reverse primers for site-directed mutagenesis were synthesized by Eurofins genomics GmbH (Wien, Vienna, Austria). Intactness of the constructs in terms of sequence was confirmed by sequencing (Microsynth Austria GmbH, Wien, Vienna, Austria; Eurofins genomics GmbH, Wien, Vienna, Austria). In the present experiments, Tag-RFP-labeled constructs were implemented for NFAT screens, patch clamp measurements, and Fura-2-based Ca^2+ imaging, while for R.Geco1.2 measurements, TRPV6 WT and mutants were used which carried an EYFP label at the N-terminus (pEYFP-C1 vector) to avoid spectral overlap. R.Geco1.2 was purchased from Addgene (No. 45494), and mCherry-CRY2-5ptase OCRL was established in the lab of P. De Camilli and was derived from Addgene (No. 66836), as was CIBN-CAAX (No. 79574). Plasmids encoding for mCerulean3-CRY2-5′ ptase OCRL, YFP-CIBN-CAAX, and the mCherry-tagged PH domain were provided by K. Groschner (Medical University of Graz, Graz, Austria). […]
as §1

## Cc1cccc(C2CCC(N3CCN(c4cccnc4)CC3)CC2)c1.O=C(O)C(F)(F)F (stereo not drawn) [cis-22a]
[1]; 0.1 µM cis-22a, 10 mM Ca2+
  inhibition of current (in words): not inhibited
[1]; 10 µM cis-22a (hundredfold higher dose), after 0.1 µM
  inhibition of current (in words): essentially unaffected
[2]; 0.1 μM cis-22a
  current inhibition vs TRPV6 WT: significantly reduced
[2]; 10 μM cis-22a, after 0.1 μM
  current inhibition vs TRPV6 WT: significantly reduced inhibition

## CCCCCCCCCCCCCCCC(=O)N[C@@H](Cc1c[nH]cn1)C(=O)N[C@@H](CCCNC(=N)N)C(=O)N[C@@H](CCC(N)=O)C(=O)N[C@@H](CCCCN)C(=O)N[C@@H](Cc1c[nH]cn1)C(=O)N[C@@H](Cc1ccccc1)C(=O)N[C@@H](CCC(=O)O)C(=O)N[C@@H](CCCCN)C(=O)N[C@@H](CCCNC(=N)N)C(=O)N[C@@H](CCCNC(=N)N)C(N)=O [pal-PIP2 peptide] (Palmitoyl-HRQKHFEKRR-NH2)
[1]; 10 μM pal-PIP2 peptide, relative to 1 mM La3+, n=4, Figure S1E
  inhibition of current: ~ 4%
[1]; 20 μM pal-PIP2 peptide, 10 mM Ca2+, relative to 1 mM La3+, Figure 2B
  apparent inhibition of current: about 24%
[2]; 10 μM pal-PIP2 peptide, Figure 4D
  sensitivity to peptide-based PIP2 sequestration vs WT: significantly reduced sensitivity
